These results are taken from patent US11225471B2, “Antidiabetic bicyclic compounds” (Merck Sharp & Dohme Corp., priority 2017, dated 2022).

By EC50 is commonly meant the midpoint of the concentration-response curve. A lower EC50 goes with an effect from little substance.

SMILES strings stand for the structures.

The assay deals with T1, human GPR40 (Homo sapiens, UniProt O14842).
T1 construct: expressed in transfected cells
T1 sequence (O14842 whole entry): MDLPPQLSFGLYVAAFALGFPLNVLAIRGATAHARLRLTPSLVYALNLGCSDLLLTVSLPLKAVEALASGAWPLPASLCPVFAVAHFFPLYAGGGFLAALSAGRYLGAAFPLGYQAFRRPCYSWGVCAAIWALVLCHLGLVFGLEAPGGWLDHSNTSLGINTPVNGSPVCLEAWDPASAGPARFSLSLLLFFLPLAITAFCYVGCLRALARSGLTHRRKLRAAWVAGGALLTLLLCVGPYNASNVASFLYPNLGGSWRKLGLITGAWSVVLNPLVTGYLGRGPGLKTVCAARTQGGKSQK
The assay can be described thus: Inositol Phosphate Turnover (IP1) Assay. The assay is classed as cell-based. Particulars: HEK cells stably expressing human GPR40; 60 min incubation. The method, then:
Human GPR40 stable cell-lines were generated in HEK cells. The expression plasmids were transfected using lipofectamine (Life Technologies) following manufacturer's instructions. Stable cell-lines were generated following drug selection and single cell cloning. The assay was performed in 384-well format. HEK cells stably expressing human GPR40 were plated at 7500 cells per well in growth medium (DMEM/10% fetal calf serum). Cell plates were then incubated 16 hours at 37 degrees in a 5% CO2 incubator. Measurement of Inositol Phosphate Turnover (IP1) was performed using the CisBio IP-One kit (Part number 62IPAPEB). After the 16 hour incubation, the growth media was removed by centrifugation using the BlueWasher (AusWasher GUI Ver. v1.0.1.8) Protocol #21-“Light Dry” and 10 ul of stimulation buffer (prepared as described in the kit) was added to each well. In a separate plate, compounds were diluted in DMSO (200-fold over the final concentration in the assay well) and 50 nl was acoustically transferred to the appropriate well in the assay cell plate. The plates were then incubated for 60 minutes at 37 degrees in a 5% CO2 incubator. 10 ul of detection buffer (also prepared as described in the IP-One kit) was added to each well and the plates were incubated at room temperature for 60 minutes in the dark. The plates were then read in a Perkin Elmer EnVision or equivalent reader able to measure FRET. Fluorescent ratio of emission at 665 and 620 nm was then converted to IP1 concentration by back calculating from an IP1 standard curve prepared at the time of the assay. Data were normalized to % activity using a reference compound and EC50s determined using a standard 4-parameter fit.
For `COc1cc(-c2cnc([C@@H]3CCc4ccc([C@H](C5CC5)[C@H](C)C(=O)O)cc4O3)c(C)n2)c(Cl)cn1` (single isomer, unassigned) [Example 1], a half-maximal effect (EC50) was put at 0.6 nM.
For `COc1cc(-c2cnc([C@H]3CCc4ccc([C@H](C5CC5)[C@H](C)C(=O)O)cc4O3)c(C)n2)c(Cl)cn1` (single isomer, unassigned) [Example 2] the value was 1.3 nM; for `CCOc1cc(-c2ncc(C3CCc4ccc([C@H](C5CC5)[C@H](C)C(=O)O)cc4O3)nc2C)c(F)cn1` (single isomer, unassigned) [Example 3], 7.8 nM; for `CCOc1cc(-c2ncc(C3CCc4ccc([C@H](C5CC5)[C@H](C)C(=O)O)cc4O3)nc2C)c(F)cn1` (single isomer, unassigned) [Example 4], 6.9 nM.
Then `COc1cc(-c2ncc(C3CCc4ccc([C@H](C5CC5)[C@H](C)C(=O)O)cc4O3)nc2C)c(Cl)cn1` (single isomer, unassigned) [Example 5], with 11.2 nM; and `COc1cc(-c2ncc(C3CCc4ccc([C@H](C5CC5)[C@H](C)C(=O)O)cc4O3)nc2C)c(Cl)cn1` (single isomer, unassigned) [Example 6], with 3.3 nM; and `Cc1nc(-c2cc(OCC(F)F)ncc2F)cnc1C1CCc2ccc([C@H](C3CC3)[C@H](C)C(=O)O)cc2O1` (single isomer, unassigned) [Example 7], with 0.9 nM.
As to `Cc1nc(-c2cc(OCC(F)F)ncc2F)cnc1C1CCc2ccc([C@H](C3CC3)[C@H](C)C(=O)O)cc2O1` (single isomer, unassigned) [Example 8], the EC50 was found to be 1 nM. This EC50 and that of the compound before are within 1.5-fold of each other.
For `CCOc1cc(-c2cnc(C3CCc4ccc([C@H](C5CC5)[C@H](C)C(=O)O)cc4O3)c(C)n2)c(F)cn1` (single isomer, unassigned) [Example 9] the value was 0.7 nM.
For `COc1cc(-c2ncc(C3CCc4ccc([C@H](C5CC5)[C@H](C)C(=O)O)cc4O3)nc2C)c(Cl)cn1` (single isomer, unassigned) [Example 13] the value was 4.1 nM; for `COc1cc(-c2ncc(C3CCc4ccc([C@H](C5CC5)[C@H](C)C(=O)O)cc4O3)nc2C)c(Cl)cn1` (single isomer, unassigned) [Example 14], 13.8 nM; for `COc1cc(-c2ncc(C3CCc4ccc([C@H](C5CC5)[C@H](C)C(=O)O)c(F)c4O3)nc2C)c(F)cn1` (single isomer, unassigned) [Example 15], 3 nM.
Then `COc1cc(-c2ncc(C3CCc4ccc([C@H](C5CC5)[C@H](C)C(=O)O)c(F)c4O3)nc2C)c(F)cn1` (single isomer, unassigned) [Example 16], with 6.6 nM; and `COc1cc(-c2cnc(C3CCc4ccc([C@H](C5CC5)[C@H](C)C(=O)O)c(F)c4O3)c(C)n2)c(F)cn1` (single isomer, unassigned) [Example 17], with 0.3 nM.
As for `COc1cc(-c2cnc(C3CCc4ccc([C@H](C5CC5)[C@H](C)C(=O)O)c(F)c4O3)c(C)n2)c(F)cn1` (single isomer, unassigned) [Example 18], the EC50 turned out to be 4.2 nM. This EC50 is about 14-fold higher than that of the compound before.
For `CCOc1cc(-c2cnc(C3CCc4ccc([C@H](C5CC5)[C@H](C)C(=O)O)c(F)c4O3)c(C)n2)c(F)cn1` (single isomer, unassigned) [Example 19] the value was 1.1 nM; for `CCOc1cc(-c2cnc(C3CCc4ccc([C@H](C5CC5)[C@H](C)C(=O)O)c(F)c4O3)c(C)n2)c(F)cn1` (single isomer, unassigned) [Example 20], 0.4 nM.
Then `COc1cc(-c2cnc(C3CCc4ccc([C@H](C5CC5)[C@H](C)C(=O)O)c(F)c4O3)c(C)n2)c(Cl)cn1` (single isomer, unassigned) [Example 21], with 0.3 nM.
Then `COc1cc(-c2cnc(C3CCc4ccc([C@H](C5CC5)[C@H](C)C(=O)O)c(F)c4O3)c(C)n2)c(Cl)cn1` (single isomer, unassigned) [Example 22], with 1.6 nM; and `COc1cc(-c2cnc(C3CCc4ccc([C@H](C5CC5)[C@H](C)C(=O)O)cc4O3)c(C)n2)c(C)cn1` (single isomer, unassigned) [Example 25], with 8.1 nM.
In the case of `COc1cc(-c2cnc(C3CCc4ccc([C@H](C5CC5)[C@H](C)C(=O)O)cc4O3)c(C)n2)c(C2CC2)cn1` (single isomer, unassigned) [Example 26], the EC50 amounted to 5.4 nM.
`CCOc1cc(-c2ncc([C@H]3CCc4ccc([C@H](C5CC5)[C@H](C)C(=O)O)c(F)c4O3)nc2C)c(F)cn1` [Example 11, (2S,3R)-3-cyclopropyl-3-((R)-2-(5-(2-ethoxy-5-fluoropyridin-4-yl)-6-methylpyrazin-2-yl)-8-fluorochroman-7-yl)-2-methylpropanoic acid] showed a concentration for a half-maximal effect (EC50) of 3.5 nM.
`CCOc1cc(-c2ncc([C@@H]3CCc4ccc([C@H](C5CC5)[C@H](C)C(=O)O)c(F)c4O3)nc2C)c(F)cn1` [Example 12, (2S,3R)-3-cyclopropyl-3-((S)-2-(5-(2-ethoxy-5-fluoropyridin-4-yl)-6-methylpyrazin-2-yl)-8-fluorochroman-7-yl)-2-methylpropanoic Acid] showed an EC50 of 4.3 nM.
The compound `CCc1nc([C@H]2CCc3ccc([C@H](C4CC4)[C@H](C)C(=O)O)cc3O2)cnc1-c1cc(OC)ncc1F` [Example 23, (2S,3R)-3-cyclopropyl-3-((R)-2-(6-ethyl-5-(5-fluoro-2-methoxypyridin-4-yl)pyrazin-2-yl)chroman-7-yl)-2-methylpropanoic acid] came in with a concentration giving a half-maximal response (EC50) of 6.5 nM.
Consider `CCc1nc([C@@H]2CCc3ccc([C@H](C4CC4)[C@H](C)C(=O)O)cc3O2)cnc1-c1cc(OC)ncc1F` [Example 24, (2S,3R)-3-cyclopropyl-3-((S)-2-(6-ethyl-5-(5-fluoro-2-methoxypyridin-4-yl)pyrazin-2-yl)chroman-7-yl)-2-methylpropanoic Acid], for which the concentration for a half-maximal effect (EC50) is 2.3 nM.
Then `COc1cc(-c2cnc([C@H]3C[C@H](OC)c4ccc([C@H](C5CC5)[C@H](C)C(=O)O)cc4O3)cn2)c(F)cn1` [Example 27, (2S,3R)-3-cyclopropyl-3-{(2R,4S)-2-[5-(5-fluoro-2-methoxypyridin-4-yl)pyrazin-2-yl]-4-methoxy-3,4-dihydro-2H-chromen-7-yl}-2-methylpropanoic Acid], with 1.7 nM.
